pIC50: −log10 of the molar value.

The first assay deals with T1, Cathepsin S (Homo sapiens, UniProt P25774). Briefly: Inhibition of cathepsin S in human JY cells assessed as inhibition of invariant chain degradation. It is filed as cell-based.
T1 sequence (P25774 whole entry): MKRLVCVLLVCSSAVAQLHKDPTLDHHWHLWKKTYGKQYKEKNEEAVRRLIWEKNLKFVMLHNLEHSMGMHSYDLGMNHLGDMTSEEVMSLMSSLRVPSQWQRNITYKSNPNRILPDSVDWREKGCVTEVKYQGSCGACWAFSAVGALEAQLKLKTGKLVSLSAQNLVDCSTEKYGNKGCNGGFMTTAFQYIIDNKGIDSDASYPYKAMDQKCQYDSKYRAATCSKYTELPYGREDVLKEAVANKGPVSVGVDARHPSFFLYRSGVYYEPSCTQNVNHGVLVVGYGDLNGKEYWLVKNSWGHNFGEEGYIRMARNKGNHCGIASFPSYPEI
As to `CS(=O)(=O)N1CCc2c(c(-c3ccc(C(F)(F)F)c(SCCNCc4ccccc4)c3)nn2CCCN2CCC(N3CCCC3=O)CC2)C1`, the pIC50 (commonly −log10 of the IC50, conventionally taken in molar units) was 6.34.
Still for that read-out and setting: the same measure for `CC1CCN(CCSc2cc(-c3nn(CCCN4CCC(N5CCCC5=O)CC4)c4c3CN(S(C)(=O)=O)CC4)ccc2C(F)(F)F)CC1`: 6.09.
On the same count and under the same terms, the same measure for `CC(C)(C)C1CCN(CCSc2cc(-c3nn(CCCN4CCC(N5CCCC5=O)CC4)c4c3CN(S(C)(=O)=O)CC4)ccc2C(F)(F)F)CC1`: 6.48; for `CS(=O)(=O)N1CCc2c(c(-c3ccc(C(F)(F)F)c(SCCN4CCC(O)CC4)c3)nn2CCCN2CCC(N3CCCC3=O)CC2)C1`: 6.46.
Same read-out and setting: with `CN1CCN(CCSc2cc(-c3nn(CCCN4CCC(N5CCCC5=O)CC4)c4c3CN(S(C)(=O)=O)CC4)ccc2C(F)(F)F)CC1` the figure was 6.89; with `CS(=O)(=O)N1CCc2c(c(-c3ccc(C(F)(F)F)c(SCCN4CCCC4)c3)nn2CCCN2CCC(N3CCCC3=O)CC2)C1`, 7.10.
In the case of `CS(=O)(=O)N1CCc2c(c(-c3ccc(C(F)(F)F)c(SCCN4CCC(c5ccccc5)CC4)c3)nn2CCCN2CCC(N3CCCC3=O)CC2)C1`, the negative-log IC50 (pIC50) is 6.02.
On the same count and under the same terms, with `CS(=O)(=O)N1CCc2c(c(-c3ccc(C(F)(F)F)c(SCCN4CCOCC4)c3)nn2CCCN2CCC(N3CCCC3=O)CC2)C1` the figure was 6.17; with `CS(=O)(=O)N1CCc2c(c(-c3ccc(C(F)(F)F)c(SCCN4CCCCC4)c3)nn2CCCN2CCC(N3CCCC3)CC2)C1`, 6.49; with `CS(=O)(=O)N1CCc2c(c(-c3ccc(C(F)(F)F)c(SCCN4CCCCC4)c3)nn2CCCN2CCOCC2)C1`, 5.45.
As to `CS(=O)(=O)N1CCc2c(c(-c3ccc(C(F)(F)F)c(SCCN4CCC5CCCCC5C4)c3)nn2CCCN2CCC(N3CCCC3=O)CC2)C1` (centres undefined), the pIC50 is 6.34.
On the same count and under the same terms, with `CS(=O)(=O)N1CCc2c(c(-c3ccc(C(F)(F)F)c(SCCN4CCCCC4)c3)nn2CCCN2CCCC2)C1` the figure was 6.33.

The next assay concerns the target T1, Cathepsin S. Briefly: Inhibition of human cathepsin S.
In turn, `CS(=O)(=O)N1CCc2c(c(-c3ccc(Cl)c(SCCO)c3)nn2CCCN2CCOCC2)C1` had a negative-log IC50 (pIC50) of 6.02.
Same read-out and setting: with `CS(=O)(=O)N1CCc2c(c(-c3ccc(C(F)(F)F)c(SCCN4CCC5CCCCC5C4)c3)nn2CCCN2CCC(N3CCCC3=O)CC2)C1` (centres undefined) the figure was 7.26.

These data come from ChEMBL document CHEMBL1156271, “Discovery and SAR of novel pyrazole-based thioethers as cathepsin S inhibitors: part 1” (Bioorg Med Chem Lett, 2010).
